Usually IC50 stands for the concentration that inhibits the measured activity by half. Read a high IC50 as a need for much substance.

This note sets out measurements from US10189841B2, “Purinones as ubiquitin-specific protease 1 inhibitors” (Forma Therapeutics, Inc., priority 2015, dated 2019).

USP1 (construct USP1 (I-785, GG670, 671AA)/UAF1 (I-677)-Flag), sequence (O94782 whole entry G670A/G671A): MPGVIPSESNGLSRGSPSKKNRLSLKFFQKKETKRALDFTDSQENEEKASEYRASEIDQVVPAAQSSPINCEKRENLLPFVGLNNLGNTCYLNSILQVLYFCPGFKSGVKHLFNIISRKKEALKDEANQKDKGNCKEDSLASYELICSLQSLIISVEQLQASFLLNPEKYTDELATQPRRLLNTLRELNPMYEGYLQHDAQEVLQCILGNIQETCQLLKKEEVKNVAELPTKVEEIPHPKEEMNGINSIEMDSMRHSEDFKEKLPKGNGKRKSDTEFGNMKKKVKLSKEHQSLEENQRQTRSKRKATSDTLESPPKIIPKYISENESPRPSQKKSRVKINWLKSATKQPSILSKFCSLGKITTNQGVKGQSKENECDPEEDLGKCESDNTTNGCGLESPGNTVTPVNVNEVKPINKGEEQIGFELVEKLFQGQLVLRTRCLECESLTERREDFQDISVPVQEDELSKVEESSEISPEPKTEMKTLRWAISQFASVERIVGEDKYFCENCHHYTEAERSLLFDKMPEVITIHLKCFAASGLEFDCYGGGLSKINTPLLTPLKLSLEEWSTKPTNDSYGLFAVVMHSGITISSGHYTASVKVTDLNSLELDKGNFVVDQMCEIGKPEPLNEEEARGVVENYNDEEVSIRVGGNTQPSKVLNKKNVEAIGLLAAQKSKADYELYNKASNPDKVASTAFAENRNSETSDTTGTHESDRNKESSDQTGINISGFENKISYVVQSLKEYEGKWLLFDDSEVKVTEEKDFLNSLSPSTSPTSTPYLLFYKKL
USP1 (construct USP1 (I-785, GG670, 671AA)/UAF1 (I-677)-Flag), sequence (Q8TAF3 whole entry partner): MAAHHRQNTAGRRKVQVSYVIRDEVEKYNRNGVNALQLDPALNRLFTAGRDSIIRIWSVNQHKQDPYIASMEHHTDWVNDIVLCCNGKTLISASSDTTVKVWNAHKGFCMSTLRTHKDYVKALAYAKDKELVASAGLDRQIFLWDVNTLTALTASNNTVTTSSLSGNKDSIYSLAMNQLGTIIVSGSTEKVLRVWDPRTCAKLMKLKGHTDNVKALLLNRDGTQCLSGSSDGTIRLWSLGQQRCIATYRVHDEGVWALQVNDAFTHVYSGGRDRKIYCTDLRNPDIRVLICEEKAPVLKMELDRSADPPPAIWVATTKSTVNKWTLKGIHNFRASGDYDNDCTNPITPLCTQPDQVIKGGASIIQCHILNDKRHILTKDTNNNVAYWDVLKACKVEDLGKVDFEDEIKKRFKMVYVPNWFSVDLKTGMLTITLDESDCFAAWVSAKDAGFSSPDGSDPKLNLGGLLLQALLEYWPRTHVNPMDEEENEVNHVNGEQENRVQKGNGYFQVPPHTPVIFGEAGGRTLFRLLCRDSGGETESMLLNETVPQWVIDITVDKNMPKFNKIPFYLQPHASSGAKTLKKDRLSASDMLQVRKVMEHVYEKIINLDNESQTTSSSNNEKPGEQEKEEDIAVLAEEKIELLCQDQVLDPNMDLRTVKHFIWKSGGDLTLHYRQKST

This test concerns the target USP1 (construct USP1 (I-785, GG670, 671AA)/UAF1 (I-677)-Flag) (Homo sapiens (Human), UniProt O94782, G670A/G671A). Kind of test: Ubiquitin-Rhodamine 110 assay for USP1 activity. It counts as biochemical. The settings on record: USP1/UAF1 25 pM, Ub-Rh110 25 nM, 30 min preincubation. On the procedure:
Example 53: Ubitquin-Rhodamine 110 Assay for USP1 Activity
The HTS assay was performed in a final volume of 20 μL in assay buffer containing 20 mM Tris-HCl (pH 8.0, (1M Tris-HCl, pH 8.0 solution; Corning 46-031-CM)), 2 mM CaCl2 (1M Calcium Chloride solution; Sigma #21114) 1 mM GSH (L-Glutathione reduced; Sigma #G4251), 0.01% Prionex ([…] filtered, Sigma #G-0411), and 0.01% Triton X-100. Stock compound solutions were stored at −20° C. as 10 mM in DMSO. Up to 1 month prior to the assay, 2 mM test compounds were pre-dispensed into assay plates (Black, low volume; Corning #3820) and frozen at −20° C. Prestamped assay plates were allowed to come to room temperature on the day of the assay. For the screen, 100 nL of 2 mM was pre-dispensed for a final screening concentration of […] (DMSO(fc)=0.5%). The final concentration of the enzyme (USP1, construct USP1 (I-785, GG670, 671AA)/UAF1 (I-677)-Flag; Viva) in the assay was 100 pM. Final substrate (Ub-Rh110; Ubiquitin-Rhodamine 110, R&D Systems #U-555) concentration was 25 nM with [Ub-Rh110]<<Km. […] Plates were incubated stacked for 45 minutes at room temperature before fluorescence was read on the Envision (Excitation at 485 nm and Emission at 535 nm; Perkin Elmer) or on the PheraSTAR (Excitation at 485 nm and Emission at 535 nm; BMG Labtech)
Nanoliter quantities of either an 8-point or 10-point, 3-fold serial dilution in DMSO was pre-dispensed into assay plates (Perkin Elmer, ProxiPlate-384 F Plus, #6008269) for a final test concentration range of either 25 μM to 11 nM or 25 μM to 1.3 nM, respectively. The final concentration of the enzyme (USP1, construct USP1 (I-785, GG670, 671AA)/UAF1 (I-677)-Flag; Viva) in the assay was 25 pM. Final substrate (Ub-Rh110; Ubiquitin-Rhodamine 110, R&D Systems #U-555) concentration was 25 nM with [Ub-Rh110]<<Km. […] Plates were incubated stacked for 20 minutes at room temperature before 5 μL of stop solution (final concentration of 10 mM citric acid in assay buffer (Sigma, #251275-500G)). Fluorescence was read on the Envision (Excitation at 485 nm and Emission at 535 nm; Perkin Elmer) or on the PheraSTAR (Excitation at 485 nm and Emission at 535 nm; BMG Labtech).
For both assay formats data were reported as percent inhibition compared with control wells based on the following equation: % inh=[1−((FLU−AveLow)/(AveHigh−AveLow))]×100 where FLU=measured Fluorescence, AveLow=average Fluorescence of no enzyme control (n=16), and AveHigh=average Fluorescence of DMSO control (n=16). IC50 values were determined by curve fitting of the standard 4 parameter logistic fitting algorithm included in the Activity Base software package: IDBS XE Designer Model205. Data is fitted using the Levenburg Marquardt algorithm.
On to `CC(C)c1ccccc1-c1ncc2[nH]c(=O)n(Cc3ccc(-c4ncco4)cc3)c2n1` [Compound I-169, 2-(2-isopropylphenyl)-9-(4-(oxazol-2-yl)benzyl)-7,9-dihydro-8H-purin-8-one], for which the 50% inhibitory concentration (IC50) was below 0.05 µM.

For `COC(C)CCOc1ncccc1-c1ncc2[nH]c(=O)n(Cc3ccc(-c4nc(C(F)(F)F)cn4C)cc3)c2n1` (stereo not drawn) [Compound I-426, 2-(2-(3-methoxybutoxy)pyridin-3-yl)-9-(4-(1-methyl-4-(trifluoromethyl)-1H-imidazol-2-yl)benzyl)-7,9-dihydro-8H-purin-8-one], the IC50 is below 0.05 µM.

On to `CC(C)c1ccccc1-c1ncc2c(n1)n(Cc1ccc(-c3cccc(OCCN(C)C)c3)cc1)c(=O)n2C` [Compound I-260, 9-((3′-(2-(dimethylamino)ethoxy)-[1,1′-biphenyl]-4-yl)methyl)-2-(2-isopropylphenyl)-7-methyl-7,9-dihydro-8H-purin-8-one], for which the half-inhibitory concentration (IC50) fell in the range of 0.05 to 0.2 µM.

`COCCNC(=O)N(C)c1ccc(Cn2c(=O)n(C)c3cnc(-c4ccccc4C(C)C)nc32)cc1` [Compound I-485, 1-(4-((2-(2-isopropylphenyl)-7-methyl-8-oxo-7,8-dihydro-9H-purin-9-yl)methyl)phenyl)-3-(2-methoxyethyl)-1-methylurea] yielded a half-inhibitory concentration (IC50) above 2 µM.

As to `CC(C)c1ccccc1-c1ncc2c(n1)n(CC1CCN(S(=O)(=O)c3cccnc3)CC1)c(=O)n2C` [Compound I-449, 2-(2-isopropylphenyl)-7-methyl-9-((1-(pyridin-3-ylsulfonyl)piperidin-4-yl)methyl)-7,9-dihydro-8H-purin-8-one], the IC50 is above 2 µM.

Consider `CC(C)c1ccccc1-c1ncc2[nH]c(=O)n(Cc3ccc(-n4ccc(C5CCCNC5)n4)cc3)c2n1` (stereo not drawn) [Compound I-223, 2-(2-isopropylphenyl)-9-(4-(3-(piperidin-3-yl)-1H-pyrazol-1-yl)benzyl)-7,9-dihydro-8H-purin-8-one], for which the IC50 lay in the range of 0.05 to 0.2 µM.

Molecule `Cn1cc(C(F)(F)F)nc1-c1ccc(Cn2c(=O)[nH]c3cnc(-c4cccnc4OC(F)F)nc32)cc1` [Compound I-35, 2-(2-(difluoromethoxy)pyridin-3-yl)-9-(4-(1-methyl-4-(trifluoromethyl)-1H-imidazol-2-yl)benzyl)-7,9-dihydro-8H-purin-8-one] registered a 50% inhibitory concentration (IC50) below 0.05 µM.

`CC(C)Oc1cc(F)ccc1-c1ncc2[nH]c(=O)n(Cc3ccc(-n4nccn4)cc3)c2n1` [Compound I-15, 9-(4-(2H-1,2,3-triazol-2-yl)benzyl)-2-(4-fluoro-2-isopropoxyphenyl)-7,9-dihydro-8H-purin-8-one] showed a half-inhibitory concentration (IC50) above 2 µM.

Molecule `Cn1cc(C(F)(F)F)nc1-c1ccc(Cn2c(=O)[nH]c3cnc(-c4cccnc4OC4CCC4)nc32)cc1` [Compound I-419, 2-(2-cyclobutoxypyridin-3-yl)-9-(4-(1-methyl-4-(trifluoromethyl)-1H-imidazol-2-yl)benzyl)-7,9-dihydro-8H-purin-8-one] gave a half-inhibitory concentration (IC50) below 0.05 µM.

On to `CC(C)c1ccccc1-c1ncc2[nH]c(=O)n(C3CCC34CN(c3cccnc3)C4)c2n1` (stereo not drawn) [Compound I-495, 2-(2-isopropylphenyl)-9-(2-(pyridin-3-yl)-2-azaspiro[3.3]heptan-5-yl)-7,9-dihydro-8H-purin-8-one], for which the half-maximal inhibitory concentration (IC50) lay within 0.2 to 2 µM.

Consider `CC(C)c1ccccc1-c1ncc2c(n1)n(CC1CCN(C(=O)NC3CC3)CC1)c(=O)n2C` [Compound I-479, N-cyclopropyl-4-((2-(2-isopropylphenyl)-7-methyl-8-oxo-7,8-dihydro-9H-purin-9-yl)methyl)piperidine-1-carboxamide], for which the 50% inhibitory concentration (IC50) is above 2 µM.

Consider `CC(C)c1ccccc1-c1ncc2[nH]c(=O)n(Cc3ccc(-c4nc(C(F)(F)F)n(C)n4)cc3)c2n1` [Compound I-293, 2-(2-isopropylphenyl)-9-(4-(1-methyl-5-(trifluoromethyl)-1H-1,2,4-triazol-3-yl)benzyl)-7,9-dihydro-8H-purin-8-one], for which the IC50 is below 0.05 µM.

Take `CC(C)c1ccccc1-c1ncc2c(n1)n(Cc1ccc(-c3nc(C(F)(F)F)cn3CCO)cc1)c(=O)n2C` [Compound I-106, 9-(4-(1-(2-Hydroxyethyl)-4-(trifluoromethyl)-1H-imidazol-2-yl)benzyl)-2-(2-isopropylphenyl)-7-methyl-7,9-dihydro-8H-purin-8-one]: the half-inhibitory concentration (IC50) was below 0.05 µM.

The molecule `CC(C)c1cc(F)ccc1-c1ncc2c(n1)n(Cc1ccc(-n3cccn3)cc1)c(=O)n2C` [Compound I-10, 9-(4-(1H-pyrazol-1-yl)benzyl)-2-(4-fluoro-2-isopropylphenyl)-7-methyl-7,9-dihydro-8H-purin-8-one] returned an IC50 of 0.2 to 2 µM.

Molecule `Cc1nc(S(=O)(=O)N(C)c2ccc(Cn3c(=O)n(C)c4cnc(-c5ccccc5C(C)C)nc43)cc2)cn1C` [Compound I-458, N-(4-((2-(2-isopropylphenyl)-7-methyl-8-oxo-7,8-dihydro-9H-purin-9-yl)methyl)phenyl)-N,1,2-trimethyl-1H-imidazole-4-sulfonamide] had a half-inhibitory concentration (IC50) of 0.2 to 2 µM.

`CC(C)c1ccccc1-c1ncc2[nH]c(=O)n(Cc3ccc(-n4cc(-c5ccccc5)nn4)cc3)c2n1` [Compound I-340, 2-(2-isopropylphenyl)-9-(4-(4-phenyl-1H-1,2,3-triazol-1-yl)benzyl)-7,9-dihydro-8H-purin-8-one] returned an IC50 of 0.2 to 2 µM.

For `CCNc1ncccc1-c1ncc2[nH]c(=O)n(Cc3ccc(-c4nc(C(F)(F)F)cn4C)cc3)c2n1` [Compound I-312, 2-(2-(ethylamino)pyridin-3-yl)-9-(4-(1-methyl-4-(trifluoromethyl)-1H-imidazol-2-yl)benzyl)-7,9-dihydro-8H-purin-8-one], the IC50 was below 0.05 µM.

`CC(C)c1ccccc1-c1ncc2[nH]c(=O)n([C@@H](C)c3ccc(-n4ccnn4)cc3)c2n1` [Compound I-147, (S)-9-(1-(4-(1H-1,2,3-triazol-1-yl)phenyl)ethyl)-2-(2-isopropylphenyl)-7,9-dihydro-8H-purin-8-one] yielded an IC50 of 0.05 to 0.2 µM.

Molecule `CC(C)c1ccccc1-c1ncc2[nH]c(=O)n(Cc3ccc(-c4ncc(C(F)(F)F)n4C)cc3)c2n1` [Compound I-219, 2-(2-isopropylphenyl)-9-(4-(1-methyl-5-(trifluoromethyl)-1H-imidazol-2-yl)benzyl)-7,9-dihydro-8H-purin-8-one] gave a half-inhibitory concentration (IC50) below 0.05 µM.

`COCc1cn(-c2ccc(Cn3c(=O)[nH]c4cnc(-c5ccccc5C(C)C)nc43)cc2)nn1` [Compound I-344, 2-(2-isopropylphenyl)-9-(4-(4-(methoxymethyl)-1H-1,2,3-triazol-1-yl)benzyl)-7,9-dihydro-8H-purin-8-one] came in with an IC50 of 0.2 to 2 µM.

The molecule `CC(C)c1ccccc1-c1ncc2[nH]c(=O)n(Cc3ccc(-c4cn(CCN(C)C)nn4)cc3)c2n1` [Compound I-521, 9-(4-(1-(2-(Dimethylamino)ethyl)-1H-1,2,3-triazol-4-yl)benzyl)-2-(2-isopropylphenyl)-7,9-dihydro-8H-purin-8-one] showed an IC50 of 0.2 to 2 µM.

The molecule `CC(C)c1ccccc1-c1ncc2[nH]c(=O)n(Cc3ccc(-c4cnn(C5CCOCC5)c4)cc3)c2n1` [Compound I-519, 2-(2-Isopropylphenyl)-9-(4-(1-(tetrahydro-2H-pyran-4-yl)-1H-pyrazol-4-yl)benzyl)-7,9-dihydro-8H-purin-8-one] registered a half-maximal inhibitory concentration (IC50) of 0.2 to 2 µM.

With `CC(C)c1ccccc1-c1ncc2c(n1)n(Cc1ccc(-c3nc(C(F)(F)F)cn3C3COC3)cc1)c(=O)n2C` [Compound I-110, 2-(2-isopropylphenyl)-7-methyl-9-(4-(1-(oxetan-3-yl)-4-(trifluoromethyl)-1H-imidazol-2-yl)benzyl)-7,9-dihydro-8H-purin-8-one], the 50% inhibitory concentration (IC50) was below 0.05 µM.

The molecule `CC(=O)c1nc(-c2ccccc2C(C)C)nc2c1[nH]c(=O)n2Cc1ccc(-c2nc(C(F)(F)F)cn2C)cc1` [Compound I-534, 6-Acetyl-2-(2-isopropylphenyl)-9-(4-(1-methyl-4-(trifluoromethyl)-1H-imidazol-2-yl)benzyl)-7,9-dihydro-8H-purin-8-one] showed an IC50 of 0.05 to 0.2 µM.
